Assay [1] deals with nAChRs comprised of α4 and β2 subunits (Rattus norvegicus, UniProt P09483+P12390). The assay can be described thus: In vitro inhibition of 3H-cytisine binding. Here is the method: The predominant subtype with high affinity for nicotine is comprised of α4 and β2 subunits. nAChRs of the latter type can selectively be labelled by the nicotine agonist ^3H-cytisine.
Tissue Preparation: Preparations are performed at 0-4° C. unless otherwise indicated. […] The homogenate is centrifuged at 27,000×g for 10 min. The supernatant is discarded and the pellet is resuspended in fresh buffer and centrifuged a second time. The final pellet is resuspended in fresh buffer (35 ml per g of original tissue) and used for binding assays.
Assay: Aliquots of 500 μl homogenate are added to 25 μl of test solution and 25 μl of ^3H-cytisine (1 nM, final concentration), mixed and incubated for 90 min at 2° C. Non-specific binding is determined using (−)-nicotine (100 μM, final concentration). After incubation the samples are added 5 ml of ice-cold buffer and poured directly onto Whatman GF/C glass fibre filters under suction and immediately washed with 2×5 ml ice-cold buffer. The amount of radioactivity on the filters is determined by conventional liquid scintillation counting. Specific binding is total binding minus non-specific binding.

Assay [2] deals with T1, neuronal nicotinic receptors (α4β2 subtype high affinity site) (Rattus norvegicus, UniProt P09483+P12390).
T1 construct: The forebrain (÷cerebellum) from a male Wistar rat (150-250 g) is homogenized; from tissue; host or cells: rat forebrain (without cerebellum) membrane homogenate
T1 sequence (P09483 31-630): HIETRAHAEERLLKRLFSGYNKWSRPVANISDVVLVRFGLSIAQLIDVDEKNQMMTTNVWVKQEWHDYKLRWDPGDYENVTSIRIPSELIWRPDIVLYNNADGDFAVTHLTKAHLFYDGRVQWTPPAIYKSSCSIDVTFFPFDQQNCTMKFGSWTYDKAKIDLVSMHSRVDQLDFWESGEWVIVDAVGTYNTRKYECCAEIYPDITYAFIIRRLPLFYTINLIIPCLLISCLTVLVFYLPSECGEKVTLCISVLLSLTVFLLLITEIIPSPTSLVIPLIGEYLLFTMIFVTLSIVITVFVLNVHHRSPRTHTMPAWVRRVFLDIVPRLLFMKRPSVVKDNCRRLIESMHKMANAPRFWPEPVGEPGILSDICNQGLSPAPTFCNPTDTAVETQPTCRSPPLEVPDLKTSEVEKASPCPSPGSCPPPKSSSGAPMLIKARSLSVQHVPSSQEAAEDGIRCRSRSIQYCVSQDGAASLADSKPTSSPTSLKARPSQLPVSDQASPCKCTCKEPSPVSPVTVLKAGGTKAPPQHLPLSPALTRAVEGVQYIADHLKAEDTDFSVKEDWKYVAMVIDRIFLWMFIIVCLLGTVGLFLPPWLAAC
T1 sequence (P12390 25-500): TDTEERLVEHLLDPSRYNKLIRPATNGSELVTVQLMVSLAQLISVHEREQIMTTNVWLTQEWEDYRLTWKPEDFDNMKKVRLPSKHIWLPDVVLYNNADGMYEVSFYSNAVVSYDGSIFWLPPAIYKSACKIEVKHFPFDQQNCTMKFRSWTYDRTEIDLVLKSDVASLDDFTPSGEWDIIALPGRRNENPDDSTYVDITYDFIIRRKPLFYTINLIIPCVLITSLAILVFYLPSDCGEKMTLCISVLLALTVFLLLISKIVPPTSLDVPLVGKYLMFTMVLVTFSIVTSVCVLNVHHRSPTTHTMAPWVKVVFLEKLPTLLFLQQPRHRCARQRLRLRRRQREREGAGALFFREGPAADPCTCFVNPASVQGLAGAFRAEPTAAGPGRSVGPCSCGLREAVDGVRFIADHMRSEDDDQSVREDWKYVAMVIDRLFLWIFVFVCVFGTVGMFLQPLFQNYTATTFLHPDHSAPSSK
In words: In vitro inhibition of 3H-epibatidin binding. The protocol: The high affinity binding site for ^3H-epibatidin is most certainly binding to the α4β2 subtype of nicotinic receptors. The identity of the low affinity site is still unknown; does it represent a second nicotinic receptor or a second site in the same receptor.
Tissue preparation: Preparations are performed at 0-4° C. unless otherwise indicated. The forebrain (÷cerebellum) from a male Wistar rat (150-250 g) is homogenized for 10-20 sec in 20 ml Tris, HCl (50 mM, pH 7.4) using an Ultra-Turrax homogenizer. The tissue suspension is centrifuged at 27,000×g for 10 min. The supernatant is discarded and the pellet is washed three times by centrifugation at 27,000×g for 10 min in 20 ml fresh buffer, and the final pellet is resuspended in fresh buffer (400 ml per g of original tissue) and used for binding assays.
Assay: Aliquots of 2.0 ml homogenate are added to 0.100 ml of test solution and 0.100 ml of ^3H-epibatidin (0.3 nM, final concentration), mixed and incubated for 60 min at room temperature. Non-specific binding is determined using (−)-nicotine (30 μM, final concentration). After incubation the samples are poured directly onto Whatman GF/C glass fibre filters (presoaked in 0.1% PEI for at least 20 min) under suction and immediately washed with 2×5 ml ice-cold buffer. The amount of radioactivity on the filters is determined by conventional liquid scintillation counting. Specific binding is total binding minus non-specific binding.

The target of assay [3] is nAChR formed by the α7 subunit isoform (Rattus norvegicus, UniProt Q05941). The assay can be described thus: biochemical. The assay is classed as binding.
nAChR formed by the α7 subunit isoform, sequence (Q05941 23-502): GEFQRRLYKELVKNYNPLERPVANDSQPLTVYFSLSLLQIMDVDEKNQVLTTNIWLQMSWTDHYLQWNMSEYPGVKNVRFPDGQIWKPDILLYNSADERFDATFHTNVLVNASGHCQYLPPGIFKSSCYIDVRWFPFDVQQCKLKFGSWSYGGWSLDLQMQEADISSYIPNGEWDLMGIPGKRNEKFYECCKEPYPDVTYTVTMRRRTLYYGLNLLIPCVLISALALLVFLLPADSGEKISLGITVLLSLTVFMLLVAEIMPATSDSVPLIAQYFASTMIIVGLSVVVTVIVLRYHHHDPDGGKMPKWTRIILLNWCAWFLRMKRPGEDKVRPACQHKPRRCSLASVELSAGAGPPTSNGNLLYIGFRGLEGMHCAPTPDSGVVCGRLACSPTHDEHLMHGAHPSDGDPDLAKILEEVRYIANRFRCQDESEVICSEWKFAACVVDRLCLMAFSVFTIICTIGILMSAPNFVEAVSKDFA
[4] abbreviates: rat forebrain homogenate, 0.3 nM 3H-epibatidin, 60 min at room temperature, read-out: 3H-epibatidin IC50.
Where [5] appears, read: rat cerebral cortex homogenate, 1 nM 3H-cytisine, 90 min at 2° C., read-out: 3H-cytisine IC50.

Read-outs that look alike come from different tables or passages of the source.

nAChRs comprised of α4 and β2 subunits, sequence (P09483 31-630): as the sequence (P09483 31-630) above
nAChRs comprised of α4 and β2 subunits, sequence (P12390 25-500): as the sequence (P12390 25-500) above

On to `CN1CCCN(c2cncc(OCC3CC3)c2)CC1` [Compound 9E, 1-(5-Cyclopropylmethoxy-3-pyridyl)-4-methyl-homopiperazine], for which the values for the IC50 in assay [1], in assay [2] (setting [4]) and in assay [3] were 78 nM, 4800 nM and more than 30000 nM, respectively.

For the compound `COc1cncc(N2CCNCC2)c1` [Compound 3B, 1-(5-Methoxy-3-pyridyl)-piperazine], the IC50 in assay [1] (setting [5]) is 800 nM; in assay [2], 4500 nM; in assay [3] it was more than 30000 nM.

Regarding `CCCOc1cncc(N2CCCNCC2)c1` [Compound 10H, 1-(5-Propyloxy-3-pyridyl)-homopiperazine], the IC50 was 0.9 nM in assay [1], 5.4 nM in assay [2] and more than 30000 nM in assay [3].

Regarding `CCCCCCCOc1cncc(N2CCCN(C)CC2)c1` [Compound 16E, 1-(5-Heptyloxy-3-pyridyl)-4-methyl-homopiperazine], the results for the IC50 in assay [1] (setting [5]), in assay [2] and in assay [3] were 280 nM, 700 nM and more than 30000 nM, respectively.

Take `c1ccc(-c2cncc(N3CCCNCC3)c2)cc1` [Compound 2H, 1-(5-Phenyl-3-pyridyl)-homopiperazine]: the IC50 in assay [1] (setting [5]) amounted to 3 nM; in assay [2], 20 nM; in assay [3] it was 37000 nM.

In the case of `Clc1cncc(N2CCCNCC2)n1` [Compound 3K, 1-(6-Chloro-2-pyrazinyl)-homopiperazine], the IC50 came out at 20 nM in assay [1], 160 nM in assay [2] and 5600 nM in assay [3].

On to `c1ccc2ncc(N3CCCNCC3)cc2c1` [Compound 2F, 1-(3-Quinolinyl)-homopiperazine], for which the half-inhibitory concentration (IC50) in assay [1] came out at 6 nM; in assay [2], 84 nM; in assay [3] it was 5900 nM.

Turning to `CN1CCCN(c2cncc(OC3CCCC3)c2)CC1` [Compound 25E, 1-(5-Cyclopentyloxy-3-pyridyl)-4-methyl-homopiperazine], the IC50 in assay [1] is 80 nM; in assay [2] (setting [4]), 610 nM; in assay [3], more than 30000 nM.

Turning to `COCCOc1cncc(N2CCCNCC2)c1` [Compound 5H, 1-(5-Methoxyethoxy-3-pyridyl)-homopiperazine], the IC50 in assay [1] came to 2 nM; in assay [2], 20 nM; in assay [3], 19000 nM.

For the compound `COc1cncc(N2CCCNCCC2)c1` [Compound 6B, 1-(5-Methoxy-3-pyridyl)-1,5-diazacyclooctane], the values for the IC50 in assay [1], in assay [2] and in assay [3] were 1 nM, 3.2 nM and 2500 nM, respectively.

With `CCCCOc1cncc(N2CCNCC2)c1` [Compound 2D, 1-(5-Butoxy-3-pyridyl)piperazine], the results for the half-maximal inhibitory concentration (IC50) in assay [1] (setting [5]), in assay [2] and in assay [3] were 180 nM, 1400 nM and more than 30000 nM, respectively.

Turning to `CN1CCCN(c2cncc(-c3cccnc3)c2)CC1` [Compound 19E, 4-Methyl-1-[5-(3-pyridyl)-3-pyridyl]-homopiperazine], the IC50 was 170 nM in assay [1] (setting [5]), 1800 nM in assay [2] and more than 30000 nM in assay [3].

With `CCCOc1cncc(N2CCCN(C)CC2)c1` [Compound 10E, 4-Methyl-1-(5-propyloxy-3-pyridyl)-homopiperazine], the IC50 in assay [1] was 60 nM; in assay [2] (setting [4]) it was 290 nM; in assay [3] it was more than 30000 nM.

Consider `COc1cncc(N2CCCN(C)C2)c1` [Compound 2M, 1-(5-Methoxy-3-pyridyl)-3-methyl-1,3-diazacyclohexane], for which the IC50 is 90 nM in assay [1], 2700 nM in assay [2] (setting [4]) and more than 30000 nM in assay [3].

As for `Clc1ccc(N2CCCCNCC2)nn1` [Compound 8B, 1-(6-Chloro-3-pyridazinyl)-1,4-diazacyclooctane], the figures for the IC50 in assay [1] (setting [5]), in assay [2] and in assay [3] were 550 nM, 920 nM and 5500 nM, respectively.

On to `CCCCCOc1cncc(N2CCCN(C)CC2)c1` [Compound 15E, 4-Methyl-1-(5-pentyloxy-3-pyridyl)-homopiperazine], for which the IC50 in assay [1] is 30 nM; in assay [2] (setting [4]) it was 210 nM; in assay [3] it was more than 30000 nM.

`CCOc1cncc(N2CCN(C)CC2)c1` [Compound 7A, 1-(5-Ethoxy-3-pyridyl)-4-methyl-piperazine]: the IC50 in assay [1] was 6 nM; in assay [2], 90 nM; in assay [3] it was more than 30000 nM.

In the case of `Cc1ccc(N2CCCNCC2)nn1` [Compound 5K, 1-(6-Methyl-3-pyridazinyl)-homopiperazine], the 50% inhibitory concentration (IC50) came out at 160 nM in assay [1], 740 nM in assay [2] and 4800 nM in assay [3].

As to `COCCOc1cncc(N2CCCN(C)CC2)c1` [Compound 7E, 1-(5-Methoxyethoxy-3-pyridyl)-4-methyl-homopiperazine], the results for the IC50 in assay [1], in assay [2] (setting [4]) and in assay [3] were 70 nM, 550 nM and more than 30000 nM, respectively.

`COc1cc(N2CCCNCC2)cnc1Cl` [Compound 5F, 1-(6-Chloro-5-methoxy-3-pyridyl)-homopiperazine]: the half-maximal inhibitory concentration (IC50) in assay [1] is 0.7 nM; in assay [2] it was 5 nM; in assay [3] it was 900 nM.

For the compound `Clc1cncc(N2CCNCC2)c1` [Compound 4B, 1-(5-Chloro-3-pyridyl)-piperazine], the IC50 was 310 nM in assay [1] (setting [5]), 3000 nM in assay [2] and more than 30000 nM in assay [3].

For `COc1cncc(N2CCCNCC2)c1` [Compound 1H, 1-(5-Methoxy-3-pyridyl)-homopiperazine], the IC50 amounted to 2 nM in assay [1], 20 nM in assay [2] and 3000 nM in assay [3].

In the case of `CN1CCN(c2cncc(-c3ccccc3)c2)CC1` [Compound 6A, 4-Methyl-1-(5-phenyl-3-pyridyl)-piperazine], the figures for the IC50 in assay [1], in assay [2] (setting [4]) and in assay [3] were 80 nM, 1100 nM and more than 30000 nM, respectively.

For `Clc1ccc(N2CCCNCCC2)nn1` [Compound 7B, 1-(6-Chloro-3-pyridazinyl)-1,5-diazacyclooctane], the IC50 in assay [1] is 30 nM; in assay [2] (setting [4]), 150 nM; in assay [3], 460 nM.

Take `Clc1ccc(N2CCCNCC2)nn1` [Compound 1K, 1-(6-Chloro-3-pyridazinyl)-homopiperazine]: the results for the IC50 in assay [1], in assay [2] and in assay [3] were 10 nM, 60 nM and 1400 nM, respectively.

`CN1CCCN(c2cncc(SCc3ccccc3)c2)CC1` [Compound 18E, 4-Methyl-1-(5-thiobenzyl-3-pyridyl)-homopiperazine]: the IC50 in assay [1] (setting [5]) worked out at 600 nM; in assay [2], 800 nM; in assay [3] it was 15000 nM.

Turning to `Brc1ccc(N2CCCNCC2)cn1` [Compound 8K, 1-(6-Bromo-3-pyridyl)-homopiperazine], the half-maximal inhibitory concentration (IC50) in assay [1] (setting [5]) is 1 nM; in assay [2], 10 nM; in assay [3], 620 nM.

Regarding `CC(C)CCOc1cncc(N2CCCN(C)CC2)c1` [Compound 12E, 4-Methyl-1-[5-(3-methyl-butoxy)-3-pyridyl]-homopiperazine], the IC50 in assay [1] is 55 nM; in assay [2] (setting [4]), 270 nM; in assay [3], more than 30000 nM.

`CC(C)COc1cncc(N2CCCN(C)CC2)c1` [Compound 8E, 4-Methyl-1-[5-(2-methyl-propyloxy)-3-pyridyl]-homopiperazine]: the half-inhibitory concentration (IC50) in assay [1] was 70 nM; in assay [2] (setting [4]) it was 450 nM; in assay [3], more than 30000 nM.

For `CC(C)COc1cncc(N2CCCNCC2)c1` [Compound 6H, 1-[5-(2-Methyl-propoxy)-3-pyridyl]-homopiperazine], the IC50 was 2 nM in assay [1], 10 nM in assay [2] and more than 30000 nM in assay [3].

Usually IC50 stands for the concentration that gives 50% inhibition.

For the origin of these results see US6897219B2, “Heteroaryl diazacycloalkanes, their preparation and use” (priority 1997, dated 2005).
